Measurements as given in the supplement of paper PMC10307832.

What was measured:
Experiment in all cases: relative viability (nuclei count vs DMSO), 5 days (fraction); higher = more cells survive
[1] = compound: CCN(CCO)CCCC(C)Nc1ccnc2cc(Cl)ccc12 [Hydroxychloroquine] + Cc1cc(Nc2cc(N3CCN(C)CC3)nc(Sc3ccc(NC(=O)C4CC4)cc3)n2)n[nH]1 [Tozasertib] (partner 0.1 µM)
In short: (§1)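 Five library-drug doses in √10 steps were combined with a fixed anchor-drug dose, or a single drug was given alone, by pin tool to lung cancer cell lines in 1536-well plates the day after seeding. Nuclei were stained and counted after 5 days. Relative viability is the nuclei count in treated wells over that in vehicle wells, taken as the median of duplicate plates.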

[2] = compound: CCN(CCO)CCCC(C)Nc1ccnc2cc(Cl)ccc12 [Hydroxychloroquine] + COc1cc2c(Oc3ccc(NC(=O)C4(C(=O)Nc5ccc(F)cc5)CC4)cc3F)ccnc2cc1OCCCN1CCOCC1 [Foretinib] (partner 0.25 µM)
In short: as §1

[3] = compound: CCN(CCO)CCCC(C)Nc1ccnc2cc(Cl)ccc12 [Hydroxychloroquine] + CCNC(=O)c1noc(-c2cc(C(C)C)c(O)cc2O)c1-c1ccc(CN2CCOCC2)cc1 [Luminespib] (partner 0.01 µM)
In short: as §1

[4] = compound: CCN(CCO)CCCC(C)Nc1ccnc2cc(Cl)ccc12 [Hydroxychloroquine] + NC(=O)Nc1cc(-c2cccc(F)c2)sc1C(=O)N[C@H]1CCCNC1 [AZD7762] (partner 0.2 µM)
In short: as §1

Row | Cell Line | relative viability ([1]; first compound 0.5 µM) | relative viability ([1]; first compound 1.581 µM) | relative viability ([1]; first compound 5 µM) | relative viability ([1]; first compound 15.81 µM) | relative viability ([1]; first compound 50 µM) | relative viability ([2]; first compound 0.5 µM) | relative viability ([2]; first compound 1.581 µM) | relative viability ([2]; first compound 5 µM) | relative viability ([2]; first compound 15.81 µM) | relative viability ([2]; first compound 50 µM) | relative viability ([3]; first compound 0.5 µM) | relative viability ([3]; first compound 1.581 µM) | relative viability ([3]; first compound 5 µM) | relative viability ([3]; first compound 15.81 µM) | relative viability ([3]; first compound 50 µM) | relative viability ([4]; first compound 0.5 µM) | relative viability ([4]; first compound 1.581 µM) | relative viability ([4]; first compound 5 µM) | relative viability ([4]; first compound 15.81 µM) | relative viability ([4]; first compound 50 µM)
1 | NCI-H2170 | 0.721 | 0.751 | 0.67 | 0.813 | 0.728 | 1.04 | 1.04 | 0.973 | 1.01 | 1.1 | 0.543 | 0.646 | 0.765 | 0.714 | 1.01 | 0.925 | 0.918 | 0.867 | 0.882 | 1.09
2 | NCI-H2342 | 0.493 | 0.467 | 0.439 | 0.508 | 0.627 | 0.917 | 0.995 | 1.05 | 1.01 | 1.1 | 0.606 | 0.668 | 0.706 | 0.69 | 0.809 | 0.458 | 0.47 | 0.522 | 0.463 | 0.449
3 | NCI-H2347 | 0.553 | 0.455 | 0.664 | 0.402 | 0.469 | 0.936 | 0.663 | 0.885 | – | 0.683 | 0.308 | 0.342 | 0.531 | 0.729 | 0.361 | 0.657 | 0.692 | 0.806 | 0.701 | 0.882
4 | NCI-H2405 | 0.769 | 0.691 | 0.756 | 0.707 | 0.728 | 1.11 | 0.975 | 1.05 | 1.02 | 1.05 | 0.763 | 0.613 | 0.671 | 0.663 | 0.579 | 0.879 | 0.841 | 0.717 | 0.675 | 0.768
5 | NCI-H3122 | 0.434 | 0.368 | 0.397 | 0.456 | 0.505 | 0.92 | 0.934 | 0.945 | 0.985 | 1.03 | 0.11 | 0.0839 | 0.104 | 0.109 | 0.0905 | 0.956 | 0.976 | 1.06 | 0.993 | 1.13
6 | PC-3 [JPC-3] | 0.859 | 0.959 | 0.973 | 0.948 | 0.901 | 1.07 | 1.14 | 0.99 | 1.02 | 1.07 | 0.762 | 0.711 | 0.745 | 0.686 | 0.774 | 0.905 | 0.882 | 0.652 | 0.727 | 0.774
7 | PC-14 | 0.58 | 0.537 | 0.54 | 0.544 | 0.55 | 0.909 | 0.987 | 1.01 | 0.972 | 0.962 | 0.17 | 0.151 | 0.17 | 0.173 | 0.154 | 0.3 | 0.459 | 0.31 | 0.302 | 0.406
8 | RERF-LC-KJ | 0.452 | 0.523 | 0.541 | 0.487 | 0.478 | 0.757 | 0.825 | 0.872 | 0.918 | 0.941 | 1.08 | 1.22 | 1.31 | 1.14 | 1.1 | 0.959 | 0.961 | 1.01 | 0.91 | 1.08
9 | SW 900 | 0.517 | 0.531 | 0.548 | 0.74 | 0.572 | 0.941 | 0.824 | 0.866 | 0.816 | 0.869 | 0.156 | 0.176 | 0.195 | 0.17 | 0.177 | 0.678 | 0.681 | 0.679 | 0.748 | 0.594
